Entries after “also recorded” stand apart in the source; their conditions may differ. Read-outs that look alike come from different tables or passages of the source.
What was measured:
[1] = system: DNA topoisomerase II; assay: Drug-stimulated topoisomerase II-mediated DNA cleavage assay (end-labeled PMC41 DNA); format: biochemical; conditions: for enhancement of topoisomerase II-mediated DNA cleavage: 625-fold concentration range; for DNA topoisomerase II-inhibitory and alkylating activity: summary of biochemical studies
Source text: FIGS. 5A and 5B are a photographic reproduction of the results of drug-stimulated topoisomerase II-mediated DNA cleavage assays performed on various compounds, including compounds of the present invention.
DNA intercalation is a necessary but not a sufficient requirement for DNA topoisomerase II-mediated DNA cleavage. Accordingly, determination of drug-induced enzyme inhibition requires direct assay with isolated topoisomerase II. These assays involve determination of drug-enhanced topoisomerase II-mediated cleavage of PMC41 DNA appropriately end-labeled with [α-^32 P]dATP. As better seen in FIG. 5B, lane B, purified topoisomerase II, under the assay conditions, causes fragmentation of the DNA (background cleavage), as indicated by the radioautographic appearance of bands of cleaved DNA having differing mass values.

[2] = system: murine P388 leukemia; assay: In vivo antitumor activity vs. murine P388 (P388/S) leukemia; design: species or system murine (B6D2F1 males); conditions: for Long-term survivors / Median increase in lifespan / Median survival / Net mean percent weight change, day 7 / Range of deaths (dying animals): ip
Source text: Initial studies utilized a multiple dose schedule, with drug administered once daily on days 1, 2, 3 and 4. […] The marked activity of AD 312 in this system has been confirmed in multiple separate experiments.
Additional studies were done with AD 312 vs. murine P388/S under more demanding conditions of assay.
^a Summary results of 4 separate experiments. B6D2F1 males; 1 ×

[3] = system: plasmid PC15 supercoiled DNA; assay: DNA unwinding assay (interference with DNA topoisomerase I-mediated unwinding; drug-DNA intercalation); format: biochemical
Source text: DNA unwinding assays were used to measure the ability of a test drug to interfere with DNA topoisomerase I-mediated unwinding of plasmid PC15 supercoiled DNA. DNA topoisomerase I controls the topology of double-stranded DNA and is itself not inhibited by DNA intercalating agents. Rather, intercalating agents cause distortion of the torsional angle between adjacent DNA strand components and thereby interfere with the ability of topoisomerase I to convert supercoiled DNA into relaxed forms. Accordingly, this assay is taken as the definitive test of drug-DNA intercalation.
Drugs were tested at 4 concentrations over a 125-fold concentration range. […] These compounds are 2-chloroethylurea derivatives of daunorubicin and adriamycin, respectively (i.e. not nitrosoureas, but chemical intermediates from which the nitrosoureas were derived).

[4] = Chemical stability / autodegradation to oxazolidinone (HPLC); format: physicochemical
Source text: FIGS. 2A and 2B are reproductions of HPLC printouts showing autodegration of N-2-chloroethylnitrosoureidoadriamycin.
Again, depending upon the specific compound, similar results were seen when compounds were exposed to aqueous media or even maintained in the dry state in a vacuum desiccator. Of importance, all daunorubicin urea and nitrosourea products, regardless of the specific alkyl or aryl substituent, afforded the same anthracycline degradation product; similarly, all adriamycin ureas and nitrosoureas afforded the same other degradation material.
Epirubicin (4'-epiadriamycin) is an example of such a starting material.

[5] = system: murine L1210 lymphocytes; assay: DNA alkaline elution filter assay, DNA damage in murine L1210 lymphocytes; format: cell-based; conditions: L1210
Source text: (§1) By means of the DNA alkaline elution filter assay technique, it is possible to assess the nature of damage induced in DNA by exposure to drugs and other agents. Depending on the assay conditions, DNA lesions can be quantified as direct strand breaks, DNA-DNA interstrand crosslinks, and protein-associated strand breaks and crosslinks. The action of akylating-type drugs on DNA typically results in a predominant formation of direct DNA single-strand breaks and DNA-DNA crosslinks. DNA intercalating agents show a preponderance of protein-associated DNA damage, detectable as protein-associated single-strand breaks and DNA-protein crosslinks.
(§2) The nature of nitrosoureidoanthracycline-induced DNA damage in murine L1210 and human CLL lymphocytes was assessed by means of the alkaline elution filter technique. Murine L1210 leukemic lymphocytes, like P388/S lymphocytes, are known to contain high levels of topoisomerase II.
(§3) *All concentrations 1 μM, 1hr incubation. Each entry represents the
(§4) mean of at least two experiments, frequency per 10^6 nucleotides;
(§5) statistically significant increase above background underlined. DB, direc
(§6) (nonenzymatic) DNA breaks; PAB, proteinassociated DNA cleavage; DDCL,
(§7) interstrand DNA crosslinks; DPCL, DNAprotein crosslinks.

[6] = system: human CEM leukemic lymphocytes; assay: Growth inhibition of human CEM leukemic lymphocyte suspension cultures, 48 h continuous drug exposure (ID50); format: cell-based; conditions: for growth inhibitory activity: CEM in vitro; for IC50: Homo sapiens, Lymphocyte, CEM, 48 hr continuous drug exposure (Table 2), read-out: ID50 (the source's name)
Method: (§8) Culture and bioassay conditions were as described in Cancer Chemotherapy Pharmacology 20:277 (1987) "Comparative Effects of Adriamycin and DNA-nonbinding Analogues on DNA, RNA, and Protein Synthesis in Vitro", Israel et al., except that cell counts were determined by hemocytometer rather than by automated cell counting.

[7] = system: human CLL lymphocytes; assay: DNA alkaline elution filter assay, DNA damage in human CLL lymphocytes; format: cell-based; conditions: for DD-CL, interstrand DNA crosslinks / DP-CL, DNA-protein crosslinks: CLL, 1 μM, 1 hr incubation
Source text: as §1, §2, §3, §4, §5, §6, §7
B-cell type lymphocytes freshly obtained from patients with chronic lymphocytic leukemia (CLL) show undetectable levels of topoisomerase II.

[8] = system: murine L1210 leukemia cells; assay: Clonogenic assay with cultured murine L1210 leukemia cells, 1 h drug exposure (LD90); format: cell-based; conditions: for clonogenic cell kill: L1210, 1 hour exposure; for IC90: Mus musculus, L1210, 1 hr drug exposure, read-out: L1210 LD90 (dose killing 90% of clonogens)
Method: as §8
+Dose killing 90% of clonogens, 1hr. drug exposure.

[9] = Solubility in water or saline; format: physicochemical
Method: Accordingly, the compounds are formulated for administration by dissolving the compound in a pharmaceutically acceptable non-toxic carrier which contains a surfactant. The present inventors employ a formulation of 10% Cremaphor EL (a polyhydroxylated castor oil derivative) available from BASF Chemicals, 10% ethanol and 80% aqueous media (sterile water or saline solution). That quantity of the compound desired for establishing an effective dose is dissolved in a 1:1 mixture of Cremaphor EL and ethanol. Thereafter, sufficient aqueous medium is added with stirring to develop a final formulation containing 80% aqueous medium. This formulation is administered parenterally.

COc1cccc2c1C(=O)c1c(O)c3c(c(O)c1C2=O)C[C@@](O)(C(=O)CO)C[C@@H]3O[C@H]1C[C@H](NC(=O)N(CCCl)N=O)[C@H](O)[C@H](C)O1 [AD 347, 2-chloroethylnitrosoureidoadriamycin]
enhancement of topoisomerase II-mediated DNA cleavage [1]: no saturation of background cleavage
DNA topoisomerase II-inhibitory and alkylating activity [1]: clearly establish the DNA topoisomerase II-inhibitory activity and alkylating activity
increase in life span ([2]; P388/S, 16.0 mg/kg/day×4): > 500%
survival at 60 days ([2]; P388/S, 16.0 mg/kg/day×4): 57%
Long-term survivors ([2]; 2.0 mg/kg qd 1-4 (Table 7)): 0/7
Median increase in lifespan ([2]; 2.0 mg/kg qd 1-4 (Table 7)): +70%
Median survival ([2]; 2.0 mg/kg qd 1-4 (Table 7)): 17 days
Net mean percent weight change, day 7 ([2]; 2.0 mg/kg qd 1-4 (Table 7)): +8%
Range of deaths (dying animals) ([2]; 2.0 mg/kg qd 1-4 (Table 7)): 16 to 18 days
Long-term survivors ([2]; 4.0 mg/kg qd 1-4 (Table 7)): 0/7
Median increase in lifespan ([2]; 4.0 mg/kg qd 1-4 (Table 7)): +90%
Median survival ([2]; 4.0 mg/kg qd 1-4 (Table 7)): 19 days
Net mean percent weight change, day 7 ([2]; 4.0 mg/kg qd 1-4 (Table 7)): +2%
Range of deaths (dying animals) ([2]; 4.0 mg/kg qd 1-4 (Table 7)): 18 to 21 days
Long-term survivors ([2]; 8.0 mg/kg qd 1-4): 0/7
Median increase in lifespan ([2]; 8.0 mg/kg qd 1-4): +120%
Median survival ([2]; 8.0 mg/kg qd 1-4): 22 days
Net mean percent weight change, day 7 ([2]; 8.0 mg/kg qd 1-4): +2%
Range of deaths (dying animals) ([2]; 8.0 mg/kg qd 1-4): 19 to 24 days
Median increase in lifespan ([2]; 12.0 mg/kg qd 1-4): +160%
Median survival ([2]; 12.0 mg/kg qd 1-4): 26 days
Net mean percent weight change, day 7 ([2]; 12.0 mg/kg qd 1-4): +2%
Range of deaths (dying animals) ([2]; 12.0 mg/kg qd 1-4): 22 to 37 days
Long-term survivors ([2]; 12.0 mg/kg qd 1-4, sacrifice day 60): 2/7
Median increase in lifespan ([2]; 16.0 mg/kg qd 1-4): > +500%
Net mean percent weight change, day 7 ([2]; 16.0 mg/kg qd 1-4): -3%
Range of deaths (dying animals) ([2]; 16.0 mg/kg qd 1-4): 26 to 31 days
Long-term survivors ([2]; 16.0 mg/kg qd 1-4, sacrifice day 60): 4/7
relative strength of drug-DNA intercalation (arbitrary scale) ([3]; 0 = no intercalation, 9 = very strong intercalation): 8
interference with topoisomerase I-mediated conversion of supercoiled DNA / intercalation ([3]; 4 concentrations, 125-fold range): the ability of these compounds to intercalate, a prerequisite for topoisomerase II inhibition, is clearly established
autodegradation ([4]; HPLC, chloroform-methanol, overnight in the cold where stated): a second signal was clearly evident
pattern of DNA damage [5]: pattern of DNA damage consistent with both topoisomerase II inhibition and DNA-alkylatingaction
potency compared to adriamycin (more potent) [6]: 10 fold
growth inhibitory activity [6]: almost identical in vitro biological properties; also recorded: moderate to marked growth inhibitory activity
IC50 [6]: 5 nM
pattern of DNA damage ([7]; CLL B-cell lymphocytes): some level of protein-associated DNA damage in these cells, but also affords significant levels of alkylation-type damage, seen as direct strand breaks and, with increasing time, DNA interstrand crosslinks
DD-CL, interstrand DNA crosslinks ([7]; 0 hr after treatment): -0.18 frequency per 10^6 nucleotides
DP-CL, DNA-protein crosslinks ([7]; 0 hr after treatment): 0.16 frequency per 10^6 nucleotides
DD-CL, interstrand DNA crosslinks ([7]; 1 hr after treatment): -0.04 frequency per 10^6 nucleotides
DP-CL, DNA-protein crosslinks ([7]; 1 hr after treatment): 0.17 frequency per 10^6 nucleotides
DP-CL, DNA-protein crosslinks ([7]; 3 hr after treatment): 0.19 frequency per 10^6 nucleotides
clonogenic cell kill [8]: essentially equipotent
IC90 [8]: 580 nM

COc1cccc2c1C(=O)c1c(O)c3c(c(O)c1C2=O)C[C@@](O)(C(=O)CO)C[C@@H]3O[C@H]1C[C@H](NC(=O)N(CCCl)N=O)[C@@H](O)[C@H](C)O1 [AD 392, 2-chloroethylnitrosoureidoepirubicin]
enhancement of topoisomerase II-mediated DNA cleavage [1]: no saturation of background cleavage
DNA topoisomerase II-inhibitory and alkylating activity [1]: clearly establish the DNA topoisomerase II-inhibitory activity and alkylating activity
chemical stability / tendency to decompose to oxazolidinone ([4]; relative to adriamycin-derived products): improved chemical stability
solubility ([9]; water or saline solution): essentially insoluble in water or saline solution
solubility ([9]; water, of the order of, read-out: solubility in water): < 25 µg/mL
pattern of DNA damage [5]: pattern of DNA damage consistent with both topoisomerase II inhibition and DNA-alkylatingaction
potency compared to adriamycin (more potent) [6]: 10 fold
growth inhibitory activity [6]: almost identical in vitro biological properties; also recorded: moderate to marked growth inhibitory activity
IC50 [6]: 5 nM
clonogenic cell kill [8]: essentially equipotent
IC90 [8]: 530 nM
